According to patent publication US9663525B2, “Pyrazolopyrimidinyl inhibitors of ubiquitin-activating enzyme” (Millennium Pharmaceuticals, Inc., priority 2012, dated 2017):

Target: recombinant human UAE (Homo sapiens (Human), UniProt P22314)
Assay: Ubiquitin Activating Enzyme (UAE) HTRF assay, human UAE
Procedure: After incubation for 120 minutes, quantification of the FRET is performed on the Pherostar (BMG).
For compounds whose values are marked with an asterisk (*), mouse UAE was used. For all other compounds, human UAE was used.

Chain of recombinant human UAE (P22314 whole entry): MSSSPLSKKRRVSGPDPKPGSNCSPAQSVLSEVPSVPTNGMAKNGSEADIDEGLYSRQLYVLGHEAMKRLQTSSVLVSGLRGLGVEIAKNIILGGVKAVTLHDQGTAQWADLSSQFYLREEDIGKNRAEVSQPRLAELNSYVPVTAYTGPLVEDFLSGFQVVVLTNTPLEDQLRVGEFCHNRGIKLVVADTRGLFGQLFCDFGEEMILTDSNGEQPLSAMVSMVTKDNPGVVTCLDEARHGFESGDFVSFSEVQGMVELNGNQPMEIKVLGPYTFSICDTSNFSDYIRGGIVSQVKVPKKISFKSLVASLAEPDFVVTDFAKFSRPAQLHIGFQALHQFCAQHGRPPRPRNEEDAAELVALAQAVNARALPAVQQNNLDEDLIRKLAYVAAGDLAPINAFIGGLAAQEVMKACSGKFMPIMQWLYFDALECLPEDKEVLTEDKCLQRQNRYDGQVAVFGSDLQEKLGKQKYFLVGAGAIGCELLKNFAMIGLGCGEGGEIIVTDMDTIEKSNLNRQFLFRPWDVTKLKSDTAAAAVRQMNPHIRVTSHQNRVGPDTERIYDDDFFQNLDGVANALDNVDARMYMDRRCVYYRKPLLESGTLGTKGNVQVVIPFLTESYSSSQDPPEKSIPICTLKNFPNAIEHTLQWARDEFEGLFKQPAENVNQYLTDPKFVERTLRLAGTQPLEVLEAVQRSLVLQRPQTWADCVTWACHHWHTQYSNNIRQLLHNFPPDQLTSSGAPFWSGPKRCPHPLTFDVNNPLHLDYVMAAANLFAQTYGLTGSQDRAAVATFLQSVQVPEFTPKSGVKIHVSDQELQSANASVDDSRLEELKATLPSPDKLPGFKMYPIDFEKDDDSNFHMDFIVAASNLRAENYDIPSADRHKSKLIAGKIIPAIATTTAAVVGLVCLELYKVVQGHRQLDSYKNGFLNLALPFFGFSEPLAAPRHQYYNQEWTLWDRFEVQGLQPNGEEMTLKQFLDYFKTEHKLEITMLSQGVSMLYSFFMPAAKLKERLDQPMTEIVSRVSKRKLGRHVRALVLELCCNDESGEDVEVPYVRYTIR

| IC50 | % inhibition @0.111 μM (0.111 μM compound, human UAE) | SMILES |
| --- | --- | --- |
| < 10 nM | – | NS(=O)(=O)OC[C@H]1C[C@@H](Nc2ccnc3cc(-c4cccc(Br)c4)nn23)[C@H](O)[C@@H]1O (racemic) [Compound I-028, (rac)-((1R,2R,3S,4R)-4-((2-(3-Bromophenyl)pyrazolo[1,5-a]pyrimidin-7-yl)amino)-2,3-dihydroxycyclopentyl)methyl rel-sulfamate] |
| < 10 nM | – | NS(=O)(=O)OC[C@H]1C[C@@H](Nc2ccnc3cc(-c4c[nH]c5ccccc45)nn23)[C@H](O)[C@@H]1O (racemic) [Compound I-032, (rac)-[(1R,2R,3S,4R)-2,3-dihydroxy-4-{[2-(1H-indol-3-yl)pyrazolo[1,5-a]pyrimidin-7-yl]amino}cyclopentyl]methyl rel-sulfamate] |
| < 10 nM | – | NS(=O)(=O)OC[C@H]1C[C@@H](Nc2ccnc3cc(-c4ccc(C(F)(F)F)c5cccnc45)nn23)[C@H](O)[C@@H]1O (racemic) [Compound I-033, (rac)-((1R,2R,3S,4R)-2,3-dihydroxy-4-(2-(5-(trifluoromethyl)quinolin-8-yl)pyrazolo[1,5-a]pyrimidin-7-ylamino)cyclopentyl)methyl rel-sulfamate] |
| < 10 nM | – | NS(=O)(=O)OC[C@H]1C[C@@H](Nc2ccnc3cc(-c4ccc5ncccc5c4)nn23)[C@H](O)[C@@H]1O (racemic) [Compound I-034, (rac)-((1R,2R,3S,4R)-2,3-dihydroxy-4-(2-(quinolin-6-yl)pyrazolo[1,5-a]pyrimidin-7-ylamino)cyclopentyl)methyl rel-sulfamate] |
| < 10 nM | – | NS(=O)(=O)OC[C@H]1C[C@@H](Nc2ccnc3cc(-c4cccc(-c5ccccn5)c4)nn23)[C@H](O)[C@@H]1O (racemic) [Compound I-036, (rac)-((1R,2R,3S,4R)-2,3-Dihydroxy-4-((2-(3-(pyridin-2-yl)phenyl)pyrazolo[1,5-a]pyrimidin-7-yl)amino)cyclopentyl)methyl rel-sulfamate] |
| < 10 nM | – | NS(=O)(=O)OC[C@H]1C[C@@H](Nc2ccnc3cc(-c4ccc5[nH]c6ccccc6c5c4)nn23)[C@H](O)[C@@H]1O (racemic) [Compound I-037, (rac)-[(1R,2R,3S,4R)-4-{[2-(9H-carbazol-3-yl)pyrazolo[1,5-a]pyrimidin-7-yl]amino}-2,3-dihydroxycyclopentyl]methyl rel-sulfamate] |
| < 10 nM | – | Cc1sc(-c2ccccc2)nc1-c1cc2nccc(N[C@@H]3C[C@H](COS(N)(=O)=O)[C@@H](O)[C@H]3O)n2n1 (racemic) [Compound I-038, (rac)-[(1R,2R,3S,4R)-2,3-dihydroxy-4-{[2-(5-methyl-2-phenyl-1,3-thiazol-4-yl)pyrazolo[1,5-a]pyrimidin-7-yl]amino}cyclopentyl]methyl rel-sulfamate] |
| < 10 nM | – | NS(=O)(=O)OC[C@H]1C[C@@H](Nc2ccnc3cc(-c4ccc5ccccc5n4)nn23)[C@H](O)[C@@H]1O (racemic) [Compound I-042, (rac)-((1R,2R,3S,4R)-2,3-dihydroxy-4-(2-(quinolin-2-yl)pyrazolo[1,5-a]pyrimidin-7-ylamino)cyclopentyl)methyl rel-sulfamate] |
| < 10 nM | – | NS(=O)(=O)OC[C@H]1C[C@@H](Nc2ccnc3cc(-c4ccc5cccnc5c4)nn23)[C@H](O)[C@@H]1O (racemic) [Compound I-043, (rac)-((1R,2R,3S,4R)-2,3-dihydroxy-4-(2-(quinolin-7-yl)pyrazolo[1,5-a]pyrimidin-7-ylamino)cyclopentyl)methyl rel-sulfamate] |
| < 10 nM | – | NS(=O)(=O)OC[C@H]1C[C@@H](Nc2ccnc3cc(-c4cccc5ccsc45)nn23)[C@H](O)[C@@H]1O (racemic) [Compound I-045, (rac)-((1R,2R,3S,4R)-4-((2-(Benzo[b]thiophen-7-yl)pyrazolo[1,5-a]pyrimidin-7-yl)amino)-2,3-dihydroxycyclopentyl)methyl rel-sulfamate] |
| < 10 nM | – | NS(=O)(=O)OC[C@H]1C[C@@H](Nc2ccnc3cc(-c4coc5ccccc45)nn23)[C@H](O)[C@@H]1O (racemic) [Compound I-049, (rac)-((1R,2R,3S,4R)-4-(2-(benzofuran-3-yl)pyrazolo[1,5-a]pyrimidin-7-ylamino)-2,3-dihydroxycyclopentyl)methyl rel-sulfamate] |
| < 10 nM | – | NS(=O)(=O)OC[C@H]1C[C@@H](Nc2ccnc3cc(-c4cccc(OC(F)F)c4)nn23)[C@H](O)[C@@H]1O (racemic) [Compound I-050, (rac)-((1R,2R,3S,4R)-4-((2-(3-(Difluoromethoxy)phenyl)pyrazolo[1,5-a-]pyrimidin-7-yl)amino)-2,3-dihydroxycyclopentyl)methyl rel-sulfamate] |
| 10 to 100 nM | – | NS(=O)(=O)OC[C@H]1C[C@@H](Nc2ccnc3cc(-c4cccc(Oc5ccccc5)c4)nn23)[C@H](O)[C@@H]1O (racemic) [Compound I-051, (rac)-((1R,2R,3S,4R)-2,3-Dihydroxy-4-((2-(3-phenoxyphenyl)pyrazolo[1,5-a]pyrimidin-7-yl)amino)cyclopentyl)methyl rel-sulfamate] |
| < 10 nM | – | CC(C)(C)c1cccc(-c2cc3nccc(N[C@@H]4C[C@H](COS(N)(=O)=O)[C@@H](O)[C@H]4O)n3n2)n1 (racemic) [Compound I-052, (rac)-((1R,2R,3S,4R)-4-(2-(6-tert-butylpyridin-2-yl)pyrazolo[1,5-a]pyrimidin-7-ylamino)-2,3-dihydroxycyclopentyl)methyl rel-sulfamate] |
| < 10 nM | – | NS(=O)(=O)OC[C@H]1C[C@@H](Nc2ccnc3cc(-c4c[nH]c5ccc(Cl)cc45)nn23)[C@H](O)[C@@H]1O (racemic) [Compound I-054, (rac)-[(1R,2R,3S,4R)-4-{[2-(5-chloro-1H-indol-3-yl)pyrazolo[1,5-a]pyrimidin-7-yl]amino}-2,3-dihydroxycyclopentyl]methyl rel-sulfamate] |
| < 10 nM | – | NS(=O)(=O)OC[C@H]1C[C@@H](Nc2ccnc3cc(-c4c[nH]c5cc(Cl)ccc45)nn23)[C@H](O)[C@@H]1O (racemic) [Compound I-055, (rac)-[(1R,2R,3S,4R)-4-{[2-(6-chloro-1H-indol-3-yl)pyrazolo[1,5-a]pyrimidin-7-yl]amino}-2,3-dihydroxycyclopentyl]methyl rel-sulfamate] |
| < 10 nM | – | NS(=O)(=O)OC[C@H]1C[C@@H](Nc2ccnc3cc(-c4cccc5c4sc4ccccc45)nn23)[C@H](O)[C@@H]1O (racemic) [Compound I-056, (rac)-((1R,2R,3S,4R)-4-((2-(Dibenzo[b,d]thiophen-4-yl)pyrazolo[1,5-a]pyrimidin-7-yl)amino)-2,3-dihydroxycyclopentyl)methyl rel-sulfamate] |
| < 10 nM | – | NS(=O)(=O)OC[C@H]1C[C@@H](Nc2ccnc3cc(-c4cc(Cl)ccc4OC(F)(F)F)nn23)[C@H](O)[C@@H]1O (racemic) [Compound I-057, (rac)-((1R,2R,3S,4R)-4-(2-(5-chloro-2-(trifluoromethoxy)phenyl)pyrazolo[1,5-a]pyrimidin-7-ylamino)-2,3-dihydroxycyclopentyl)methyl rel-sulfamate] |
| < 10 nM | – | CC(C)(c1cccc(-c2cc3nccc(N[C@@H]4C[C@H](COS(N)(=O)=O)[C@@H](O)[C@H]4O)n3n2)c1)C(F)(F)F (racemic) [Compound I-058, (rac)-((1R,2R,3S,4R)-2,3-dihydroxy-4-(2-(3-(1,1,1-trifluoro-2-methylpropan-2-yl)phenyl)pyrazolo[1,5-a]pyrimidin-7-ylamino)cyclopentyl)methyl rel-sulfamate] |
| 10 to 100 nM | – | NS(=O)(=O)OC[C@H]1C[C@@H](Nc2ccnc3cc(-c4ccnc(C(F)(F)F)c4)nn23)[C@H](O)[C@@H]1O (racemic) [Compound I-059, (rac)-((1R,2R,3S,4R)-2,3-dihydroxy-4-(2-(2-(trifluoromethyl)pyridin-4-yl)pyrazolo[1,5-a]pyrimidin-7-ylamino)cyclopentyl)methyl rel-sulfamate] |
| 10 to 100 nM | – | NS(=O)(=O)OC[C@H]1C[C@@H](Nc2ccnc3cc(-c4ccc(C(F)(F)F)s4)nn23)[C@H](O)[C@@H]1O (racemic) [Compound I-060, (rac)-((1R,2R,3S,4R)-2,3-Dihydroxy-4-((2-(5-(trifluoromethyl)thiophen-2-yl)pyrazolo[1,5-a]pyrimidin-7-yl)amino)cyclopentyl)methyl rel-sulfamate] |
| < 10 nM | – | NS(=O)(=O)OC[C@H]1C[C@@H](Nc2ccnc3cc(-c4cccc5sccc45)nn23)[C@H](O)[C@@H]1O (racemic) [Compound I-061, (rac)-((1R,2R,3S,4R)-4-((2-(Benzo[b]thiophen-4-yl)pyrazolo[1,5-a]pyrimidin-7-yl)amino)-2,3-dihydroxycyclopentyl)methyl rel-sulfamate] |
| < 10 nM | – | NS(=O)(=O)OC[C@H]1C[C@@H](Nc2ccnc3cc(-c4ccc5c(c4)[nH]c4ccccc45)nn23)[C@H](O)[C@@H]1O (racemic) [Compound I-062, (rac)-[(1R,2R,3S,4R)-4-{[2-(9H-carbazol-2-yl)pyrazolo[1,5-a]pyrimidin-7-yl]amino}-2,3-dihydroxycyclopentyl]methyl rel-sulfamate] |
| – | 100% | COc1ccc(C(C)(C)C)cc1-c1cc2nccc(N[C@@H]3C[C@H](COS(N)(=O)=O)[C@@H](O)[C@H]3O)n2n1 (racemic) [Compound I-063, (rac)-((1R,2R,3S,4R)-4-{[2-(5-tert-butyl-2-methoxyphenyl)pyrazolo[1,5-a]pyrimidin-7-yl]amino}-2,3-dihydroxycyclopentyl)methyl rel-sulfamate] |
| 10 to 100 nM | – | NS(=O)(=O)OC[C@H]1C[C@@H](Nc2ccnc3cc(-c4cccc(C(F)(F)F)n4)nn23)[C@H](O)[C@@H]1O (racemic) [Compound I-064, (rac)-((1R,2R,3S,4R)-2,3-dihydroxy-4-(2-(6-(trifluoromethyl)pyridin-2-yl)pyrazolo[1,5-a]pyrimidin-7-ylamino)cyclopentyl)methyl rel-sulfamate] |

| SMILES | IC50 | % inhibition @0.111 μM (0.111 μM compound, human UAE) |
| --- | --- | --- |
| C[Si](C)(C)c1cccc(-c2cc3nccc(N[C@@H]4C[C@H](COS(N)(=O)=O)[C@@H](O)[C@H]4O)n3n2)c1 (racemic) [Compound I-035, (rac)-((1R,2R,3S,4R)-2,3-dihydroxy-4-(2-(3-(trimethylsilyl)phenyl)pyrazolo[1,5-a]pyrimidin-7-ylamino)cyclopentyl)methyl rel-sulfamate] | < 10 nM | – |
